Patent US10022415B2, “External composition for skin containing an enzyme-treated saponin fraction derived from the root of Camellia sinensis” (AMOREPACIFIC CORPORATION, priority 2014, dated 2018)

Key:
Tyrosinase = Tyrosinase hinderance effect; assay type: biochemical, Mushroom; settings: 37° C., 10 minutes, absorbance 475 nm; concentration not given
Description: Tyrosinase enzyme is that extracted from Mushroom and used the product of SIGMA Company. At first, tyrosine being the substrate was dissolved in the distilled water to make 0.3 mg/ml of solution and 1.0 ml of each solution was put in the tube, and then, 1.0 ml of potassium-phosphate buffer solution (0.1 mol concentration, pH 6.8) and 0.7 ml of the distilled water were added.
Each sample liquid, 0.2 ml, which was prepared by mixing the enzyme-treated saponin fraction derived from the root of camellia sinensis of the above Example 1 of the present invention in ethanol solution in the proper concentration was put in the reaction liquid and then was reacted in 37° C. incubator for 10 minutes. At this time, the control was prepared by adding only 0.2 ml of solution, instead of each of sample liquid, ascorbic acid was used as the positive control. 0.1 ml of 2500 units/ml tyrosinase solution was added to the reaction liquid and reacted in 37° C. incubator for 10 minutes. The tube with the reaction liquid was put in the ice water to stop the reaction by quenching and the absorbance at the wavelength of 475 nm was determined with the photoelectric spectrophotometer, and then the result was represented in the below Table 21. Each of tyrosinase hinderance effect was calculated by the below mathematical formula 5.

elastase = molecular target: T1, elastase (Sus scrofa, UniProt P00772); assay: Inhibition of elastase activity; assay type: biochemical; settings: EGCG 250 μM as positive control; 25° C., 15 minutes, absorbance 415 nm
T1 construct: purchased Sigma Aldrich E0127
Description: An ability hindering elastase activity of the enzyme-treated saponin fraction derived from the root of Camellia sinensis was determined in comparison with EGCG. The elastase and substrate as used were commercially purchased from Sigma Aldrich in […]0127), and the saponin fraction was used as the enzyme-treated saponin fraction derived from the root of Camellia sinensis roots as obtained from Example 1. 50 μL of Test material as represented in the below Table 1 and 20 μg/mL elastase·50 μL of solution of type III were mixed with that prepared with […] Tris-HCl buffer (pH 8.0) in 96-well plate. 250 μM of EGCG was used as a positive control, and non-treated group as a negative control used the distilled water. […] After completing the reaction, the absorption at the wavelength of 415 nm was determined. […] A: No addition of the experimental sample, Absorbance at the wavelength of 415 nm with the addition of enzyme B: No addition of the experimental sample, Absorbance at the wavelength of 415 nm without the addition of enzyme C: Addition of the experimental sample, Absorbance at the wavelength of 415 nm with the addition of enzyme D: Addition of the experimental sample, Absorbance at the wavelength of 415 nm without the addition of enzyme

B16/F10 melanoma cell = assay: Inhibition of melanin generation in B16/F10 melanoma cell; assay type: cell-based; settings: sample comprising 0.001 wt % of test material, cultured 3 days
Description: The sample comprising 0.001 wt % of the saponin fraction derived from the root of camellia sinensis of the above Example 1 and kojic acid, respectively, as the test material, was added to the culture of B16/F10 melanoma cell (Korean cell strain bank) at the constant concentration and cultured for 3 days, washed with PBS, dissolved with 1N NaOH and the absorbance was determined at 405 nm. At this time, the cell added no test material was considered as the control and the degree for hindering the melanin generation of each test material was determined by comparing the contents of melanin in the control. The inhibition rate of melanin generation was calculated according to mathematical formula 6 as below and its result was represented in Table 22.

5α-reductase = molecular target: T2, 5α-reductase (Homo sapiens, UniProt P31213); assay: Inhibition of 5α-reductase activity, [14C]testosterone to DHT in HEK293-5αR2 cell; assay type: cell-based; settings: 2 hours, negative control 48.0
T2 construct: 3xFLAG; expressed in transfected cells; host or cells: HEK293
T2 sequence (P31213 1-254): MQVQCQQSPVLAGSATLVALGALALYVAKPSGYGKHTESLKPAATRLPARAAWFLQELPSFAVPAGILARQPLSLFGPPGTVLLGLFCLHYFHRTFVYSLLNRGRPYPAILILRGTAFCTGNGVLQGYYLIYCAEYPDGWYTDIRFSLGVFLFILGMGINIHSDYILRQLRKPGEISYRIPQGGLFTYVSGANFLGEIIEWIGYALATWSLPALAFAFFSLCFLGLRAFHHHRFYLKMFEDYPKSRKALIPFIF
Description: In order to identify the effect for inhibiting 5α-reductase activity, a ratio of [^14C]testosterone changed into [^14C]dihydrotestosterone (DHT) in HEK293-5αR2 cell was determined. […] The next day, new medium with the enzyme substrate and inhibitor was changed. 0.05 μCi [^14C]testosterone (Amersham Pharmacia biotech, UK) as the substrate of the medium was used.
Thereafter, the culture media was collected and steroid was extracted with 800 μl of ethylacetate and then, after separating the organic solvent layer of the top and drying it, the remaining residue was dissolved with 50 μl of ethylacetate and developed it by using ethylacetate-hexane (1:1) as a solvent on Silica plastic sheet kieselgel 60 F254.

collagenase (MMP-1) = assay: Collagenase (MMP-1) generation in human fibroblast, ELISA; assay type: cell-based; settings: saponin fraction 30 μg/ml for 24 hours, non-treated group = 100
Description: Fibroblast of a human was placed in 96-well plate (96-well microtiter plate) with Dulbecco's Modified Eagle's Media (DMEM) containing 2.5% fetal bovine serum to be 5,000 cells/well, and was cultured at 5% CO2, at the temperature of 37° C. of incubator to grow to about 70˜80% confluency. The saponin fraction derived from the root of Camellia sinensis of the above Example 1 was treated for 24 hours in a concentration of 30 μg/ml, and then the cell culture was collected.
The degree of the collagenase generation for the cell culture collected by using the commercially available collagenase determination Apparatus (AmershamPharmacia Corporation in U.S.A., Catalog #: RPN 2610) was determined. At first, the collected cell culture was placed in 96-well plate evenly covered with the first collagenase antibody and antigen-antibody reaction was performed in thermostat container for three hours. […]
The absorbance of 96-well plate representing yellow color was determined by using Absorptiometer at 405 nm, the degree of collagenase synthesis was calculated by the below Mathematical formula 2, and the result was shown in Table 2 as below. In this case, the absorbance for the reaction of the cell culture collected from the group without treating with the composition was used as the control.

procollagen type I = assay: Promotion of collagen biosynthesis in fibroblast, procollagen type I ELISA; assay type: cell-based; settings: 10 ng/ml, 24 hours, non-treated group = 100
Description: In order to investigate the promoting effect of the collagen biosynthesis, the enzyme-treated saponin fraction derived from the root of camellia sinensis of the present invention was determined in comparison with TGF-β. At first, fibroblast was seeded as 10^5 cells per a well in 24-well plate and cultured until growing to about 90% confluency. After incubating it with non-serum DMEM medium for 24 hours, it was treated with 10 ng/ml of the saponin fraction derived from the root of camellia sinensis of the above Example 1 and TGF-β dissolved in the non-serum medium, respectively and incubated in CO2 incubator for 24 hours. The supernatant of them was taken and it was examined as to whether procollagen was increased or not by using procollagen type I ELISA kit. The result is represented in Table 8, and the ability for synthesizing the collagen was compared by considering that the non-treated group was 100.

T1 sequence (P00772 27-266): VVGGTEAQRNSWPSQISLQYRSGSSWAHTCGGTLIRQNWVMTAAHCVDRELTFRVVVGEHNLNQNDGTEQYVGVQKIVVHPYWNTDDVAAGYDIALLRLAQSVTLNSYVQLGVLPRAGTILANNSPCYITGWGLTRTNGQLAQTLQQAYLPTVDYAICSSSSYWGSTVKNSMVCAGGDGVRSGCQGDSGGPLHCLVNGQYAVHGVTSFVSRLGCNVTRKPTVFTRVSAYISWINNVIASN

O=C1O[C@H]([C@@H](O)CO)C(O)=C1O [Ascorbic acid]
Tyrosnase hinderance rate (%) (Tyrosinase): 52%

O=C(O[C@@H]1Cc2c(O)cc(O)cc2O[C@@H]1c1cc(O)c(O)c(O)c1)c1cc(O)c(O)c(O)c1 [EGCG]
Degree of the inhibiton (%) of elastase activity (elastase): 65%

O=c1cc(CO)occ1O [Kojic acid]
Inhibition rate of melanin generation (%) (B16/F10 melanoma cell): 53%

CC(C)(C)NC(=O)[C@H]1CC[C@H]2[C@@H]3CC[C@H]4NC(=O)C=C[C@]4(C)[C@H]3CC[C@]12C [Positive control, finasteride]
Conversion rate (%) of testosterone into dihydrotestosterone (5α-reductase): 27.6%

CC1=C(/C=C/C(C)=C/C=C/C(C)=C/C(=O)O)C(C)(C)CCC1 [Retinoic acid]
Degree of the expression (%) of collagenase (collagenase (MMP-1)): 75%

TGF-β: comparison substance for collagen biosynthesis
Ability for synthesizing collagen (%) (procollagen type I): 183.5%
